Test results taken from ChEMBL document CHEMBL1129807, “Design and synthesis of 3,5-dialkylamino substituted 8H,10H-3(R),5(R),15b(S)-2,3,6,7-tetrahydro-1,5,3-dioxazepino[3,2-c]indolo[3,2-g]pteridine-7-ones” (Bioorg Med Chem Lett, 1997).

Each compound was assayed on L1210 (assay: The compound was tested in vitro for growth inhibitory activity against murine leukemia L1210 cells). Conditions: Mus musculus.
Format: functional, cell-based
Compound CN1CCC(N(C)C[C@H]2CO[C@H]3c4nc5c6ccccc6n(C)c5nc4N(C)C(=O)N3[C@@H](CN(C)C3CCN(C)CC3)O2)CC1 has an IC50 of 4 µM.
For CCN(CC)C[C@H]1CO[C@H]2c3nc4c5ccccc5n(C)c4nc3NC(=O)N2[C@@H](CN(CC)CC)O1, the IC50 was 17 µM.
With CN1CCN(C[C@H]2CO[C@H]3c4nc5c6ccccc6n(C)c5nc4N(C)C(=O)N3[C@@H](CN3CCN(C)CC3)O2)CC1 the IC50 was 20 µM.
CN(C)CCCN(C)C[C@H]1CO[C@H]2c3nc4c5ccccc5n(C)c4nc3N(C)C(=O)N2[C@@H](CN(C)CCCN(C)C)O1 showed an IC50 of 24 µM.
With CCN(CC)C[C@H]1CO[C@H]2c3nc4c5ccccc5n(C)c4nc3N(C)C(=O)N2[C@@H](CN(CC)CC)O1 the IC50 was 6 µM.
Cc1c2ccncc2c(C)c2c1[nH]c1ccccc12 [ELLIPTECINE] was tested, and the IC50 was 0.5 µM.
